In ChEMBL document CHEMBL2390944, “Discovery and optimization of arylsulfonyl 3-(pyridin-2-yloxy)anilines as novel GPR119 agonists” (Bioorg Med Chem Lett, 2013):

Tests used:
[1] = in vivo; details: rat, iv, 0.5 mg/kg
[2] = in vitro; details: human, liver microsomes
[3] = Metabolic stability in mouse liver microsomes assessed as compound turnover after 30 mins; type: ADME, Microsome; details: read-out: Drug metabolism

Row | metabolised at 0.5 h [3] [%] | SMILES | clearance [1] [mL/min/kg] | metabolised at 0.5 h [2] [%]
1 | – | N#Cc1c(C(F)(F)F)cc(C2CC2)nc1Oc1cccc(NS(=O)(=O)c2ccc(Cl)cc2)c1 | 3.17 | 13
2 | 100 | Cc1ccc(S(=O)(=O)Nc2cccc(Oc3nc(C)cc(C)c3C#N)c2)cc1 | – | 72
